Experimental data reported in patent US20220290103A1, “METHODS AND COMPOSITIONS USING AUXOTROPHIC REGULATABLE CELLS” (AUXOLYTIC LTD, priority 2019, published 2022).

Tests used:
[1] = test system: K562 cells with wild-type UMPS; experiment: K562 xenograft model, bioluminescence imaging; type: in vivo, NSG mice; details: UTA supplemented food (same with normal food)
From the text: (§1) For the K562 xenograft assay, 6 to 12 weeks old male NOD SCID gamma mouse (NSG) mice were transplanted with 1×10^6 K562 cells resuspended in […]® protein mixture (Corning, Inc.) 1:1 diluted with PBS under anesthesia. All animals were kept and handled according to institutional guidelines and the experimental protocol was approved by Stanford University's Administrative Panel on Laboratory Animal Care.
(§2) The previously engineered UMPSK^KO/KO K562 cell line expressing firefly luciferase (FLuc) was used in a xenograft model in NSG mice. […] Cas9 RNP is targeted to exon 1 of the HBB locus with a guide RNA and a DNA donor template transduced by rAAV6 which carries a FLuc-2A-GFP-polyA cassette under control of the SFFV promoter. FACS analysis was performed four days after targeting of K562 cells to evaluate GFP expression before sorting of the GFP+ population. In a control group administered the AAV only, 1.61% of the cells were GFP+, and […]. […]
(§3) UMPSK^KO/KO K562 cells or control cells were transplanted subcutaneously and observed weekly with bioluminescence imaging. Luminescence imaging of K562 cells was performed 5 minutes after intraperitoneal (ip) injection of 125 mg/kg D-Luciferin (PerkinElmer) on an IVIS Spectrum imaging system (PerkinElmer). […]

[2] = test system: UMPS^KO/KO K562 cells; experiment: K562 xenograft model, bioluminescence imaging; type: in vivo, NSG mice; details: mice fed with 8% UTA
From the text: as §1, §2, §3

[3] = cited from earlier work

SMILES: CC(=O)OC[C@H]1O[C@@H](n2ccc(=O)[nH]c2=O)[C@H](OC(C)=O)[C@@H]1OC(C)=O [UTA, uridine triacetate]
- Tumor burden of UMPS wild-type K562 cells [1]: increase in tumor burden
- Luminescence of UMPS^KO/KO K562-derived tumors [2]: increased
- Increase of uridine serum levels ([3]; humans and mouse models, administration as prodrug): greater than 10 fold
- Tolerability ([3]; mice, food enriched with 8% (w/w) UTA): well tolerated
